Activity calls are given as the source filed them.
Assays:
[1] = tested on: Eleocharis acicularis; assay: Pre-emergence herbicidal activity against Eleocharis acicularis at 100 g a.i/ha measured after 14 days; format: functional, organism-based
[2] = tested on: Oryza sativa; assay: Phytotoxicity against Oryza sativa cv. Koshihikari (rice) at 100 g a.i/ha measured after 14 days; format: organism-based; conditions: in vivo, 336 h
[3] = tested on: Schoenoplectiella juncoides; assay: Pre-emergence herbicidal activity against Schoenoplectiella juncoides at 100 g a.i/ha measured after 14 days; format: functional, organism-based
[4] = tested on: Pontederia vaginalis; assay: Pre-emergence herbicidal activity against Monochoria vaginalis at 100 g a.i/ha measured after 14 days; format: functional, organism-based
[5] = tested on: Ammannia multiflora; assay: Pre-emergence herbicidal activity against Ammannia multiflora at 100 g a.i/ha measured after 14 days; format: functional, organism-based
[6] = tested on: Rotala indica; assay: Pre-emergence herbicidal activity against Rotala indica at 100 g a.i/ha measured after 14 days; format: functional, organism-based
[7] = tested on: Elatine triandra; assay: Pre-emergence herbicidal activity against Elatine triandra at 100 g a.i/ha measured after 14 days; format: functional, organism-based
[8] = tested on: Lindernia procumbens; assay: Pre-emergence herbicidal activity against Lindernia procumbens at 100 g a.i/ha measured after 14 days; format: functional, organism-based
[9] = tested on: Cyperus difformis; assay: Pre-emergence herbicidal activity against Cyperus difformis at 100 g a.i/ha measured after 14 days; format: functional, organism-based
[10] = tested on: Echinochloa oryzicola; assay: Pre-emergence herbicidal activity against Echinochloa oryzicola at 100 g a.i/ha measured after 14 days; format: functional, organism-based
[11] = tested on: Oryza sativa; assay: Phytotoxicity against Oryza sativa cv. Koshihikari (rice) at 500 g a.i/ha measured after 14 days; format: organism-based; conditions: in vivo, 336 h
[12] = tested on: Eleocharis acicularis; assay: Pre-emergence herbicidal activity against Eleocharis acicularis at 500 g a.i/ha measured after 14 days; format: functional, organism-based
[13] = tested on: Pontederia vaginalis; assay: Pre-emergence herbicidal activity against Monochoria vaginalis at 500 g a.i/ha measured after 14 days; format: functional, organism-based
[14] = tested on: Schoenoplectiella juncoides; assay: Pre-emergence herbicidal activity against Schoenoplectiella juncoides at 500 g a.i/ha measured after 14 days; format: functional, organism-based
[15] = tested on: Ammannia multiflora; assay: Pre-emergence herbicidal activity against Ammannia multiflora at 500 g a.i/ha measured after 14 days; format: functional, organism-based
[16] = tested on: Elatine triandra; assay: Pre-emergence herbicidal activity against Elatine triandra at 500 g a.i/ha measured after 14 days; format: functional, organism-based
[17] = tested on: Rotala indica; assay: Pre-emergence herbicidal activity against Rotala indica at 500 g a.i/ha measured after 14 days; format: functional, organism-based
[18] = tested on: Lindernia procumbens; assay: Pre-emergence herbicidal activity against Lindernia procumbens at 500 g a.i/ha measured after 14 days; format: functional, organism-based
[19] = tested on: Echinochloa oryzicola; assay: Pre-emergence herbicidal activity against Echinochloa oryzicola at 500 g a.i/ha measured after 14 days; format: functional, organism-based
[20] = tested on: Cyperus difformis; assay: Pre-emergence herbicidal activity against Cyperus difformis at 500 g a.i/ha measured after 14 days; format: functional, organism-based
[21] = tested on: Eleocharis acicularis; assay: Post-emergence herbicidal activity against Eleocharis acicularis assessed as bleaching of stem/leaf parts; format: functional, organism-based; note: test concentration or dose not given here
[22] = tested on: Eleocharis acicularis; assay: Pre-emergence herbicidal activity against Eleocharis acicularis assessed as bleaching of stem/leaf parts; format: functional, organism-based
[23] = tested on: Ammannia multiflora; assay: Pre-emergence herbicidal activity against Ammannia multiflora assessed as bleaching of stem/leaf parts; format: functional, organism-based
[24] = tested on: Rotala indica; assay: Pre-emergence herbicidal activity against Rotala indica assessed as bleaching of stem/leaf parts; format: functional, organism-based
[25] = tested on: Elatine triandra; assay: Pre-emergence herbicidal activity against Elatine triandra assessed as bleaching of stem/leaf parts; format: functional, organism-based
[26] = tested on: Lindernia procumbens; assay: Pre-emergence herbicidal activity against Lindernia procumbens assessed as bleaching of stem/leaf parts; format: functional, organism-based
[27] = tested on: Schoenoplectiella juncoides; assay: Pre-emergence herbicidal activity against Schoenoplectiella juncoides assessed as bleaching of stem/leaf parts; format: functional, organism-based
[28] = tested on: Pontederia vaginalis; assay: Pre-emergence herbicidal activity against Monochoria vaginalis assessed as bleaching of stem/leaf parts; format: functional, organism-based
[29] = tested on: Cyperus difformis; assay: Pre-emergence herbicidal activity against Cyperus difformis assessed as bleaching of stem/leaf parts; format: functional, organism-based
[30] = tested on: Echinochloa oryzicola; assay: Pre-emergence herbicidal activity against Echinochloa oryzicola assessed as bleaching of stem/leaf parts; format: functional, organism-based
[31] = tested on: Ammannia multiflora; assay: Post-emergence herbicidal activity against Ammannia multiflora assessed as bleaching of stem/leaf parts; format: functional, organism-based; note: test concentration or dose not given here
[32] = tested on: Elatine triandra; assay: Post-emergence herbicidal activity against Elatine triandra assessed as bleaching of stem/leaf parts; format: functional, organism-based; note: test concentration or dose not given here
[33] = tested on: Rotala indica; assay: Post-emergence herbicidal activity against Rotala indica assessed as bleaching of stem/leaf parts; format: functional, organism-based; note: test concentration or dose not given here
[34] = tested on: Schoenoplectiella juncoides; assay: Post-emergence herbicidal activity against Schoenoplectiella juncoides assessed as bleaching of stem/leaf parts; format: functional, organism-based; note: test concentration or dose not given here
[35] = tested on: Lindernia procumbens; assay: Post-emergence herbicidal activity against Lindernia procumbens assessed as bleaching of stem/leaf parts; format: functional, organism-based; note: test concentration or dose not given here
[36] = tested on: Pontederia vaginalis; assay: Post-emergence herbicidal activity against Monochoria vaginalis assessed as bleaching of stem/leaf parts; format: functional, organism-based; note: test concentration or dose not given here
[37] = tested on: Cyperus difformis; assay: Post-emergence herbicidal activity against Cyperus difformis assessed as bleaching of stem/leaf parts; format: functional, organism-based; note: test concentration or dose not given here
[38] = tested on: Echinochloa oryzicola; assay: Post-emergence herbicidal activity against Echinochloa oryzicola assessed as bleaching of stem/leaf parts; format: functional, organism-based; note: test concentration or dose not given here

Row | SMILES | Activity [1] | Activity [2] | Activity [3] | Activity [4] | Activity [5] | Activity [6] | Activity [7] | Activity [8] | Activity [9] | Activity [10] | Activity [11] | Activity [12] | Activity [13] | Activity [14] | Activity [15] | Activity [16] | Activity [17] | Activity [18] | Activity [19] | Activity [20] | also measured
1 | CONC(=O)c1cn(C)nc1OCc1cccc(C(F)(F)F)c1 | inactive | Non-toxic | Active | Active | Active | Active | Active | Active | Active | Active | Non-toxic | Active | Active | Active | Active | Active | Active | Active | Active | Active | Activity [21]: Active; Activity [22]: Active; Activity [23]: Active; Activity [24]: Active; Activity [25]: Active; Activity [26]: Active; Activity [27]: Active; Activity [28]: Active; Activity [29]: Active; Activity [30]: Active; Activity [31]: Active; Activity [32]: Active; Activity [33]: Active; Activity [34]: Active; Activity [35]: Active; Activity [36]: Active; Activity [37]: Active; Activity [38]: Active
2 | CCONC(=O)c1cn(C)nc1OCc1cccc(C(F)(F)F)c1 | Active | Non-toxic | Active | Active | Active | Active | Active | Active | Active | Active | Non-toxic | Active | Active | Active | Active | Active | Active | Active | Active | Active | Activity [21]: Active; Activity [22]: Active; Activity [23]: Active; Activity [24]: Active; Activity [25]: Active; Activity [26]: Active; Activity [27]: Active; Activity [28]: Active; Activity [29]: Active; Activity [30]: Active; Activity [31]: Active; Activity [32]: Active; Activity [33]: Active; Activity [34]: Active; Activity [35]: Active; Activity [36]: Active; Activity [37]: Active; Activity [38]: Active

— ChEMBL document CHEMBL3046635, “Synthesis and Herbicidal Activity of New Pyrazole-4-carboxamide Derivatives” (J Pestic Sci, 2004)
